Data: ChEMBL document CHEMBL3352328, “Synthesis and biological evaluation of a new series of N-acyldiamines as potential antibacterial and antifungal agents” (2014)
≈ marks a conversion by molar mass, not a printed value. Calls of active or inactive are those of the source. The rule behind the calls is not given here.

Experiments:
[1] = tested on: Candida albicans; assay: Antifungal activity against Candida albicans ATCC 18804 by broth microdilution method; type: functional
[2] = tested on: Candida parapsilosis; assay: Antifungal activity against Candida parapsilosis ATCC 22019 by broth microdilution method; type: functional; details: Lodderomyces parapsilosis
[3] = tested on: Candida tropicalis; assay: Antifungal activity against Candida tropicalis ATCC 750 by broth microdilution method; type: functional
[4] = tested on: Nakaseomyces glabratus; assay: Antifungal activity against Candida glabrata ATCC 90030 by broth microdilution method; type: functional
[5] = tested on: Escherichia coli; assay: Antimicrobial activity against Escherichia coli ATCC 11229 by broth dilution method; type: functional
[6] = tested on: Staphylococcus aureus; assay: Antimicrobial activity against Staphylococcus aureus ATCC 29213 by broth dilution method; type: functional
[7] = tested on: Staphylococcus epidermidis; assay: Antimicrobial activity against Staphylococcus epidermidis ATCC 12228 by broth dilution method; type: functional
[8] = tested on: Pseudomonas aeruginosa; assay: Antimicrobial activity against Pseudomonas aeruginosa ATCC 27853 by broth dilution method; type: functional
[9] = tested on: Staphylococcus epidermidis; assay: Bacteriostatic activity against Staphylococcus epidermidis ATCC 12228 after 24 hrs; type: functional, organism-based
[10] = tested on: Pseudomonas aeruginosa; assay: Bacteriostatic activity against Pseudomonas aeruginosa ATCC 27853 after 24 hrs; type: functional, organism-based
[11] = tested on: Staphylococcus epidermidis; assay: Bactericidal activity against Staphylococcus epidermidis ATCC 12228 after 24 hrs; type: functional; details: ATCC 12228, 24 h
[12] = tested on: Escherichia coli; assay: Bacteriostatic activity against Escherichia coli ATCC 11229 after 24 hrs; type: functional, organism-based
[13] = tested on: Staphylococcus aureus; assay: Bacteriostatic activity against Staphylococcus aureus ATCC 29213 after 24 hrs; type: functional, organism-based
[14] = tested on: Pseudomonas aeruginosa; assay: Bactericidal activity against Pseudomonas aeruginosa ATCC 27853 after 24 hrs; type: functional; details: ATCC 27853, 24 h
[15] = tested on: Escherichia coli; assay: Bactericidal activity against Escherichia coli ATCC 11229 after 24 hrs; type: functional; details: ATCC 11229, 24 h
[16] = tested on: Staphylococcus aureus; assay: Bactericidal activity against Staphylococcus aureus ATCC 29213 after 24 hrs; type: functional; details: ATCC 29213, 24 h
[17] = tested on: Staphylococcus aureus; assay: Bactericidal activity against methicillin-resistant Staphylococcus aureus clinical isolate 3 after 24 hrs; type: functional; details: isolate 3, 24 h
[18] = tested on: Staphylococcus aureus; assay: Bactericidal activity against methicillin-resistant Staphylococcus aureus clinical isolate 6 after 24 hrs; type: functional; details: isolate 6, 24 h
[19] = tested on: Staphylococcus aureus; assay: Bactericidal activity against methicillin-resistant Staphylococcus aureus clinical isolate 2 after 24 hrs; type: functional; details: isolate 2, 24 h
[20] = tested on: Staphylococcus aureus; assay: Bactericidal activity against methicillin-resistant Staphylococcus aureus clinical isolate 15 after 24 hrs; type: functional; details: isolate 15, 24 h
[21] = tested on: Staphylococcus aureus; assay: Bactericidal activity against methicillin-resistant Staphylococcus aureus clinical isolate 21 after 24 hrs; type: functional; details: isolate 21, 24 h
[22] = tested on: Staphylococcus aureus; assay: Bactericidal activity against methicillin-resistant Staphylococcus aureus clinical isolate 18 after 24 hrs; type: functional; details: isolate 18, 24 h
[23] = tested on: Staphylococcus aureus; assay: Bactericidal activity against methicillin-resistant Staphylococcus aureus clinical isolate 5 after 24 hrs; type: functional; details: isolate 5, 24 h
[24] = tested on: Staphylococcus aureus; assay: Bactericidal activity against methicillin-resistant Staphylococcus aureus clinical isolate after 24 hrs; type: functional
[25] = tested on: Staphylococcus aureus; assay: Bactericidal activity against methicillin-resistant Staphylococcus aureus clinical isolate 17 after 24 hrs; type: functional; details: isolate 17, 24 h
[26] = tested on: Staphylococcus aureus; assay: Bactericidal activity against methicillin-resistant Staphylococcus aureus clinical isolate 14 after 24 hrs; type: functional; details: isolate 14, 24 h
[27] = tested on: Staphylococcus aureus; assay: Bactericidal activity against methicillin-resistant Staphylococcus aureus clinical isolate 10 after 24 hrs; type: functional; details: isolate 10, 24 h
[28] = tested on: Staphylococcus aureus; assay: Bactericidal activity against methicillin-resistant Staphylococcus aureus clinical isolate 4 after 24 hrs; type: functional; details: isolate 4, 24 h

MIC [1]	MIC [2]	MIC [3]	MIC [4]	MIC [5]	MIC [6]	MIC [7]	MIC [8]	Compound	Activity [10]	MBC [11]	MBC [16]	further results
4 µg/mL (≈ 13.4 µM)	4 µg/mL (≈ 13.4 µM)	16 µg/mL (≈ 53.6 µM)	8 µg/mL (≈ 26.8 µM)	> 1020 µg/mL	> 1020 µg/mL	> 1020 µg/mL	> 1020 µg/mL	CCCCCCCCCCCCCCCC(=O)NCCN	–	–	–	–
32 µg/mL (≈ 112 µM)	16 µg/mL (≈ 56.2 µM)	32 µg/mL (≈ 112 µM)	64 µg/mL (≈ 225 µM)	> 1020 µg/mL	> 1020 µg/mL	1020 µg/mL (≈ 3600 µM)	1020 µg/mL (≈ 3600 µM)	CCCCCCCCCCCCCC(=O)NCCCN	Active	–	–	Activity [9]: Active
2 µg/mL (≈ 5.67 µM)	1 µg/mL (≈ 2.84 µM)	4 µg/mL (≈ 11.3 µM)	2 µg/mL (≈ 5.67 µM)	8 µg/mL (≈ 22.7 µM)	16 µg/mL (≈ 45.4 µM)	4 µg/mL (≈ 11.3 µM)	> 1020 µg/mL	CCCCCCCC/C=C\CCCCCCCC(=O)NCCCCN	Active	128 µg/mL (≈ 363 µM)	–	Activity [12]: Active; Activity [13]: Active
256 µg/mL (≈ 947 µM)	256 µg/mL (≈ 947 µM)	128 µg/mL (≈ 473 µM)	1020 µg/mL (≈ 3790 µM)	64 µg/mL (≈ 237 µM)	64 µg/mL (≈ 237 µM)	16 µg/mL (≈ 59.2 µM)	32 µg/mL (≈ 118 µM)	CCCCCCCCCCCC(=O)NCCCCN	–	16 µg/mL (≈ 59.2 µM)	512 µg/mL (≈ 1890 µM)	MBC [14]: 32 µg/mL (≈ 118 µM); MBC [15]: 64 µg/mL (≈ 237 µM)
16 µg/mL (≈ 53.6 µM)	128 µg/mL (≈ 429 µM)	64 µg/mL (≈ 214 µM)	32 µg/mL (≈ 107 µM)	256 µg/mL (≈ 858 µM)	16 µg/mL (≈ 53.6 µM)	16 µg/mL (≈ 53.6 µM)	1020 µg/mL (≈ 3430 µM)	CCCCCCCCCCCCCC(=O)NCCCCN	–	32 µg/mL (≈ 107 µM)	1020 µg/mL (≈ 3430 µM)	MBC [14]: 1020 µg/mL (≈ 3430 µM); MBC [15]: 1020 µg/mL (≈ 3430 µM)

Compound	MIC [1]	MIC [2]	MIC [3]	MIC [4]	MIC [5]	MIC [6]	MIC [7]	MIC [8]	Activity [10]	MBC [11]	MBC [16]	further results
CCC(C)n1ncn(-c2ccc(N3CCN(c4ccc(OCC5COC(Cn6cncn6)(c6ccc(Cl)cc6Cl)O5)cc4)CC3)cc2)c1=O (stereo not drawn) [ITRACONAZOLE]	0.5 µg/mL (≈ 0.709 µM)	> 512 µg/mL	> 512 µg/mL	256 µg/mL (≈ 363 µM)	–	–	–	–	–	–	–	–
CCCCCCCCCCCCCC(=O)NCCN	4 µg/mL (≈ 14.8 µM)	32 µg/mL (≈ 118 µM)	16 µg/mL (≈ 59.2 µM)	16 µg/mL (≈ 59.2 µM)	64 µg/mL (≈ 237 µM)	8 µg/mL (≈ 29.6 µM)	16 µg/mL (≈ 59.2 µM)	1020 µg/mL (≈ 3790 µM)	Active	–	128 µg/mL (≈ 473 µM)	MBC [17]: 512 µg/mL (≈ 1890 µM); MBC [18]: 512 µg/mL (≈ 1890 µM); MBC [19]: 512 µg/mL (≈ 1890 µM); MBC [20]: 64 µg/mL (≈ 237 µM); Activity [9]: Active; MBC [21]: 128 µg/mL (≈ 473 µM); MBC [22]: 128 µg/mL (≈ 473 µM); MBC [23]: 512 µg/mL (≈ 1890 µM); MIC50 [24]: 32 µg/mL (≈ 118 µM); MIC90 [24]: 256 µg/mL (≈ 947 µM); MBC [25]: 128 µg/mL (≈ 473 µM); MBC [26]: 128 µg/mL (≈ 473 µM); Activity [12]: Active; MBC [27]: 512 µg/mL (≈ 1890 µM); MBC [28]: 512 µg/mL (≈ 1890 µM)
